In patent publication US20040186166A1, “Cannabinoid analogs as peroxisome proliferator activated nuclear receptor gamma activators” (priority 2002, published 2004):

How the values were obtained:
PPARδ = target: T1, PPARδ (Mus musculus, UniProt P35396); test: PPRE-TK-LUC reporter transient transfection, PPARδ; type: cell-based; settings: 20 μM AJA (FIG. 3C)
T1 construct: expressed in transfected cells; host or cells: HEK293 / HEK293T
T1 sequence (P35396 1-440): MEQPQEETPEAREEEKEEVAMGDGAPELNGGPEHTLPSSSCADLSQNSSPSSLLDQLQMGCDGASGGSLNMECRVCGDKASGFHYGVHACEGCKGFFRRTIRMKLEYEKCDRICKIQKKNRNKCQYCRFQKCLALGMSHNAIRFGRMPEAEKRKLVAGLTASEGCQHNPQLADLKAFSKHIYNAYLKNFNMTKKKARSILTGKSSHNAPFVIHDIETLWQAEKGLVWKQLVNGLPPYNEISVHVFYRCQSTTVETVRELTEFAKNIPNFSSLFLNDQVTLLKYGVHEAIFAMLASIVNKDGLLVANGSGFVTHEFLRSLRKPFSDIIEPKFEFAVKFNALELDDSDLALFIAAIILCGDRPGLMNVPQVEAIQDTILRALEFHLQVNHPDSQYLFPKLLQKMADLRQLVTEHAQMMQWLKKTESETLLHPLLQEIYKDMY
Method: For PPARγ activation assay, HEK293 cells were plated in 12-well cell culture plates and maintained in Dulbecco's modified Eagle's medium (DMEM) supplemented with 10% fetal bovine serum (FBS) at 37° C. under 5% CO2. Cells were changed to phenol red-free DMEM supplemented with 10% charcoal-stripped fetal bovine serum 3 hours before transfection by a standard calcium-phosphate precipitation method. Twelve hours after transfection, the cells were washed with phosphate-buffered saline (PBS) and fed again with fresh medium containing the indicated concentrations of compounds. After 36 hours, cells were harvested for β-galactosidase and luciferase activities as described previously (Li et al., Proc Natl Acad Sci USA 94:8479-84, 1997). The average normalized luciferase activity was determined via triplicate experiments. For IL-8 promoter assay, HeLa cells were maintained and transfected in the same way as described above. After transfection, cells were recovered for 4 hours before treatment with AJA, GW347845, or solvent. After 3-4 hours, cells were treated with or without 25 nM of phorbol myristate acetate (PMA) for 24 hours.
In an effort to confirm that AJA activates PPARγ selectively, the ability of AJA to activate PPARα and PPARδ was analyzed in a similar transient transfection assay.

hRXRα = target: T2, hRXRα (Homo sapiens, UniProt P19793); test: DR1-TK-LUC reporter assay, RXRα; type: cell-based; settings: saturating concentrations, HEK293 cells
T2 construct: expressed in transfected cells; host or cells: HEK293
T2 sequence (P19793 1-462): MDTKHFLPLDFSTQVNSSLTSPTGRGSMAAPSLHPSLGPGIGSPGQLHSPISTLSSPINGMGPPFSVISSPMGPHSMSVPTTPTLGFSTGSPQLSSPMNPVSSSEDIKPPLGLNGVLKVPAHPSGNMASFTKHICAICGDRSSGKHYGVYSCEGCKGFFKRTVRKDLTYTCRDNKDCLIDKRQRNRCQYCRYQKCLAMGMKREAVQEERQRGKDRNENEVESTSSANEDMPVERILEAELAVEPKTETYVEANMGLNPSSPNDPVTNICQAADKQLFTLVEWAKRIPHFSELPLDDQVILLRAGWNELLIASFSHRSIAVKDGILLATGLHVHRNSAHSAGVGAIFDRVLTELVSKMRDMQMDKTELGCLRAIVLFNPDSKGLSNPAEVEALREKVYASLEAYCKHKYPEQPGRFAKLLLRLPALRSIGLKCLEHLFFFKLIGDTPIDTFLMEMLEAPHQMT

COX-2 = target: T3, COX-2 (Homo sapiens, UniProt P35354); settings: Zurier et al. 1998; cited from earlier work
T3 sequence (P35354 18-604): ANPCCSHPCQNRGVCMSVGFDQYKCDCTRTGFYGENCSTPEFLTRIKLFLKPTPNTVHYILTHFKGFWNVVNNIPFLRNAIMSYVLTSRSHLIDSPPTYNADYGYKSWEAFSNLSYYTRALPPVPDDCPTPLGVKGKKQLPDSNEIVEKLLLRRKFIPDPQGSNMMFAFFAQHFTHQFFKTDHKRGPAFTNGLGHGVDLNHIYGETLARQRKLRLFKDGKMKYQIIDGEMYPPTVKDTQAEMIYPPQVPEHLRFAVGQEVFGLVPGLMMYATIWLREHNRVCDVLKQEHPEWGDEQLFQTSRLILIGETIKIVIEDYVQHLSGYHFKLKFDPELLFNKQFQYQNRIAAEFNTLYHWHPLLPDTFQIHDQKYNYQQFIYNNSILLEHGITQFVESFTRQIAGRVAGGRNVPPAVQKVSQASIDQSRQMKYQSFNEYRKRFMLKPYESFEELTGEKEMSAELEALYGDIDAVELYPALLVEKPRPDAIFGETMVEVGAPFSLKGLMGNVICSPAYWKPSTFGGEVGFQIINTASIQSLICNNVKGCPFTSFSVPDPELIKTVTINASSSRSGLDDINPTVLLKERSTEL

For CCCCCCC(C)(C)c1cc(O)c2c(c1)OC(C)(C)[C@@H]1CC=C(C(=O)O)C[C@@H]21 [AJA, dimethylheptyl-THC-11-oic acid], the “activation of PPARδ” value (PPARδ) is listed as “neither did AJA activate PPARδ”, the “activation of reporter via RXRα” value (hRXRα) is listed as “failed to activate the reporter” and the “concentration range suppressing COX-2 activity” value (COX-2) is listed as 1 to 10 µM.
